In patent US9346815B2, “5-chloro-2-difluoromethoxyphenyl pyrazolopyrimidine compounds, compositions and methods of use thereof” (Genentech, Inc., priority 2014, dated 2016):
Structures can show the parent of a compound that is named as a salt. Each block holds one molecule with its values, some of them ahead of it.

Columns and labels:
[1] = biological target: isolated recombinant JAK2 kinase domain (Homo sapiens (Human), UniProt O60674); assay: JAK2 enzyme assay (Caliper LabChip, peptide phosphorylation); type: biochemical; settings: 25 μM ATP
[2] = test system: JAK1-dependent STAT6 phosphorylation downstream of IL-13 stimulation in TF-1 human erythroleukemia cells; assay: JAK1 pathway assay in TF-1 cells (IL-13-pSTAT6, MSD); type: cell-based; settings: Homo sapiens, TF-1, TF-1 cells, read-out: IL13-pSTAT6 EC50_TF-1
In short: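 Inhibitors were added to TF-1 cells (GM-CSF-starved, serum-free) for 30 min or to BEAS-2B cells (complete medium) for 1 hr at 37° C. MSD detected pSTAT6.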

[3] = biological target: isolated recombinant JAK1 kinase domain (Homo sapiens (Human), UniProt P23458); assay: JAK1 enzyme assay (Caliper LabChip, peptide phosphorylation); type: biochemical; settings: isolated recombinant JAK1 kinase domain, 25 μM ATP
Sequence of isolated recombinant JAK1 kinase domain (P23458 875-1153): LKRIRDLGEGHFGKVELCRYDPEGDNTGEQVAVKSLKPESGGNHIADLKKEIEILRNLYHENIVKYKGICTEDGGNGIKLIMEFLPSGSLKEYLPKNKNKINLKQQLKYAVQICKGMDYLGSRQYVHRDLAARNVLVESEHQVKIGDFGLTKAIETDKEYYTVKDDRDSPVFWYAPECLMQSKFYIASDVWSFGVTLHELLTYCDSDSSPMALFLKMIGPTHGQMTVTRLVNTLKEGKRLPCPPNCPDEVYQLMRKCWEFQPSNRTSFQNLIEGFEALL

Sequence of isolated recombinant JAK2 kinase domain (O60674 849-1124): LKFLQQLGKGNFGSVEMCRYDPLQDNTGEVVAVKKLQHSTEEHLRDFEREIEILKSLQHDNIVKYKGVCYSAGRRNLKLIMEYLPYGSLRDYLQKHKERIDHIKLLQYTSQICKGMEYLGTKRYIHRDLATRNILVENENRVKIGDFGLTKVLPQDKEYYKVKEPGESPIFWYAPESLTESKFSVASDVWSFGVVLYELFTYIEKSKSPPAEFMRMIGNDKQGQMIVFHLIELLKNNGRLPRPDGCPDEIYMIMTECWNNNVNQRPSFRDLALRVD

Compound: CN(Cc1cccc(Br)c1)C1CCN(C(=O)Cn2cc(NC(=O)c3cnn4cccnc34)c(-c3cc(Cl)ccc3OC(F)F)n2)CC1 [Example 122, N-[1-[2-[4-[(3-bromophenyl)methyl-methyl-amino]-1-piperidyl]-2-oxo-ethyl]-3-[5-chloro-2-(difluoromethoxy)phenyl]pyrazol-4-yl]pyrazolo[1,5-a]pyrimidine-3-carboxamide]
Ki [1]: 0.17 nM
EC50 [2]: 24.9 nM
Ki [3]: 0.27 nM

Compound: CN(C)CC1(O)CCN(C(=O)Cn2cc(NC(=O)c3cnn4cccnc34)c(-c3cc(Cl)ccc3OC(F)F)n2)CC1 [Example 74, N-[3-[5-chloro-2-(difluoromethoxy)phenyl]-1-[2-[4-[(dimethylamino)methyl]-4-hydroxy-1-piperidyl]-2-oxo-ethyl]pyrazol-4-yl]pyrazolo[1,5-a]pyrimidine-3-carboxamide]
Ki [1]: 2.42 nM
EC50 [2]: 38.5 nM
Ki [3]: 0.97 nM

Compound: CN1CCC2CN(C(=O)Cn3cc(NC(=O)c4cnn5cccnc45)c(-c4cc(Cl)ccc4OC(F)F)n3)CCC21 (stereo not drawn) [Example 29, N-[3-[5-chloro-2-(difluoromethoxy)phenyl]-1-[2-(1-methyl-3,3a,4,6,7,7a-hexahydro-2H-pyrrolo[3,2-c]pyridin-5-yl)-2-oxo-ethyl]pyrazol-4-yl]pyrazolo[1,5-a]pyrimidine-3-carboxamide]
Ki [1]: 1.76 nM
EC50 [2]: 5.6 nM
Ki [3]: 1.01 nM

Compound: CN(C)C(=O)CCCN(C)C1CCN(C(=O)Cn2cc(NC(=O)c3cnn4cccnc34)c(-c3cc(Cl)ccc3OC(F)F)n2)CC1 [Example 88, N-[3-[5-chloro-2-(difluoromethoxy)phenyl]-1-[2-[4-[[4-(dimethylamino)-4-oxo-butyl]-methyl-amino]-1-piperidyl]-2-oxo-ethyl]pyrazol-4-yl]pyrazolo[1,5-a]pyrimidine-3-carboxamide]
Ki [1]: 1.91 nM
EC50 [2]: 299 nM
Ki [3]: 1.72 nM

Compound: CN(C)C[C@H]1CCCN1C(=O)Cn1cc(NC(=O)c2c(N)nn3cccnc23)c(-c2cc(Cl)ccc2OC(F)F)n1 [Example 78, 2-amino-N-[3-[5-chloro-2-(difluoromethoxy)phenyl]-1-[2-[(2R)-2-[(dimethylamino)methyl]pyrrolidin-1-yl]-2-oxo-ethyl]pyrazol-4-yl]pyrazolo[1,5-a]pyrimidine-3-carboxamide]
Ki [1]: 1.38 nM
EC50 [2]: 52.4 nM
Ki [3]: 2.08 nM

Compound: CN(CCOc1ccccc1)C1CCN(C(=O)Cn2cc(NC(=O)c3cnn4cccnc34)c(-c3cc(Cl)ccc3OC(F)F)n2)CC1 [Example 100, N-[3-[5-chloro-2-(difluoromethoxy)phenyl]-1-[2-[4-[methyl(2-phenoxyethyl)amino]-1-piperidyl]-2-oxo-ethyl]pyrazol-4-yl]pyrazolo[1,5-a]pyrimidine-3-carboxamide]
Ki [1]: 2.01 nM
EC50 [2]: 5.4 nM
Ki [3]: 0.84 nM

Compound: O=C(Nc1cn(CC(=O)N2CCC(N(Cc3ccccc3)CC(F)(F)F)CC2)nc1-c1cc(Cl)ccc1OC(F)F)c1cnn2cccnc12 [Example 116, N-[1-[2-[4-[benzyl(2,2,2-trifluoroethyl)amino]-1-piperidyl]-2-oxo-ethyl]-3-[5-chloro-2-(difluoromethoxy)phenyl]pyrazol-4-yl]pyrazolo[1,5-a]pyrimidine-3-carboxamide]
Ki [1]: 7.04 nM
EC50 [2]: 23.3 nM
Ki [3]: 3.76 nM

Compound: O=C(Nc1cn(CC(=O)N2CC[C@@H]3CNCC[C@@H]32)nc1-c1cc(Cl)ccc1OC(F)F)c1cnn2cccnc12 [Example 20, N-[1-[2-[(3aR,7aS)-2,3,3a,4,5,6,7,7a-octahydropyrrolo[3,2-c]pyridin-1-yl]-2-oxo-ethyl]-3-[5-chloro-2-(difluoromethoxy)phenyl]pyrazol-4-yl]pyrazolo[1,5-a]pyrimidine-3-carboxamide]
Ki [1]: 1.21 nM
EC50 [2]: 344 nM
Ki [3]: 0.51 nM

Compound: O=C(Nc1cn(CC(=O)N2C[C@H]3CN(CCCOC(=O)C4CCC4)C[C@H]3C2)nc1-c1cc(Cl)ccc1OC(F)F)c1cnn2cccnc12 [Example 55, 3-[(3aS,6aR)-5-[2-[3-[5-chloro-2-(difluoromethoxy)phenyl]-4-(pyrazolo[1,5-a]pyrimidine-3-carbonylamino)pyrazol-1-yl]acetyl]-1,3,3a,4,6,6a-hexahydropyrrolo[3,4-c]pyrrol-2-yl]propyl cyclobutanecarboxylate]
Ki [1]: 0.72 nM
EC50 [2]: 21 nM
Ki [3]: 0.85 nM

Compound: CC(=O)N1CCC(CN2C[C@@H]3CN(C(=O)Cn4cc(NC(=O)c5cnn6cccnc56)c(-c5cc(Cl)ccc5OC(F)F)n4)C[C@@H]3C2)CC1 [Example 22, N-[1-[2-[(3aS,6aR)-2-[(1-acetyl-4-piperidyl)methyl]-1,3,3a,4,6,6a-hexahydropyrrolo[3,4-c]pyrrol-5-yl]-2-oxo-ethyl]-3-[5-chloro-2-(difluoromethoxy)phenyl]pyrazol-4-yl]pyrazolo[1,5-a]pyrimidine-3-carboxamide]
Ki [1]: 0.95 nM
EC50 [2]: 158 nM
Ki [3]: 0.94 nM

Compound: CN1C[C@@H]2CN(C(=O)Cn3cc(NC(=O)c4cnn5cccnc45)c(-c4cc(Cl)ccc4OC(F)F)n3)C[C@]2(c2ccccc2)C1 [Example 16, N-[1-[2-[(3aR,6aR)-2-methyl-3a-phenyl-3,4,6,6a-tetrahydro-1H-pyrrolo[3,4-c]pyrrol-5-yl]-2-oxo-ethyl]-3-[5-chloro-2-(difluoromethoxy)phenyl]pyrazol-4-yl]pyrazolo[1,5-a]pyrimidine-3-carboxamide]
Ki [1]: 0.56 nM
EC50 [2]: 8.1 nM
Ki [3]: 0.62 nM

Compound: CN1C[C@H]2CCN(C(=O)Cn3cc(NC(=O)c4cnn5cccnc45)c(-c4cc(Cl)ccc4OC(F)F)n3)C[C@H]2C1 [Example 25, N-[1-[2-[(3aR,7aS)-2-methyl-3,3a,4,6,7,7a-hexahydro-1H-pyrrolo[3,4-c]pyridin-5-yl]-2-oxo-ethyl]-3-[5-chloro-2-(difluoromethoxy)phenyl]pyrazol-4-yl]pyrazolo[1,5-a]pyrimidine-3-carboxamide]
Ki [1]: 1.61 nM
EC50 [2]: 121 nM
Ki [3]: 0.66 nM

Results, then the molecule that gave them:

Ki [1]: 0.41 nM
EC50 [2]: 18.3 nM
Ki [3]: 0.56 nM
Compound: CN(C)C1CCN(C(=O)c2ccc(-c3nc(-c4cc(Cl)ccc4OC(F)F)c(NC(=O)c4cnn5cccnc45)s3)cc2)CC1 [Example 253, Pyrazolo[1,5-a]pyrimidine-3-carboxylic acid {4-(5-chloro-2-difluoromethoxy-phenyl)-2-[4-(4-dimethylamino-piperidine-1-carbonyl)-phenyl]-thiazol-5-yl}-amide hydrochloride]

Ki [1]: 0.48 nM
EC50 [2]: 95.6 nM
Ki [3]: 1.99 nM
Compound: Nc1nn2cccnc2c1C(=O)Nc1cn(C2CCN(CCCCOCCc3ccccc3)CC2)nc1-c1cc(Cl)ccc1OC(F)F [Example 181, 2-amino-N-[3-[5-chloro-2-(difluoromethoxy)phenyl]-1-[1-[4-(2-phenylethoxy)butyl]-4-piperidyl]pyrazol-4-yl]pyrazolo[1,5-a]pyrimidine-3-carboxamide]

Ki [1]: 0.72 nM
EC50 [2]: 187 nM
Ki [3]: 0.44 nM
Compound: O=C(Nc1cn(CC(=O)N2CCC3(CCNC3)CC2)nc1-c1cc(Cl)ccc1OC(F)F)c1cnn2cccnc12 [Example 223, N-[3-[5-chloro-2-(difluoromethoxy)phenyl]-1-[2-(2,8-diazaspiro[4.5]decan-8-yl)-2-oxo-ethyl]pyrazol-4-yl]pyrazolo[1,5-a]pyrimidine-3-carboxamide]

Ki [1]: 0.24 nM
EC50 [2]: 57.8 nM
Ki [3]: 2.32 nM
Compound: O=C(Nc1cn(C2CCN(CCCN3CCSCC3)CC2)nc1-c1cc(Cl)ccc1OC(F)F)c1cnn2cccnc12 [Example 159, N-[3-[5-chloro-2-(difluoromethoxy)phenyl]-1-[1-(3-thiomorpholinopropyl)-4-piperidyl]pyrazol-4-yl]pyrazolo[1,5-a]pyrimidine-3-carboxamide]

Ki [1]: 0.17 nM
EC50 [2]: 20.1 nM
Ki [3]: 0.73 nM
Compound: CC(=O)NCCCN1CCC(n2cc(NC(=O)c3c(N)nn4cccnc34)c(-c3cc(Cl)ccc3OC(F)F)n2)CC1 [Example 150, N-[1-[1-(3-acetamidopropyl)-4-piperidyl]-3-[5-chloro-2-(difluoromethoxy)phenyl]pyrazol-4-yl]-2-amino-pyrazolo[1,5-a]pyrimidine-3-carboxamide]

Ki [1]: 2.38 nM
EC50 [2]: 19.8 nM
Ki [3]: 2.69 nM
Compound: CN1C[C@@H]2CN(C(=O)c3nc(-c4cc(Cl)ccc4OC(F)F)c(NC(=O)c4cnn5cccnc45)s3)C[C@@H]2C1 [Example 264, Pyrazolo[1,5-a]pyrimidine-3-carboxylic acid [4-(5-chloro-2-difluoromethoxy-phenyl)-2-(5-methyl-hexahydro-pyrrolo[3,4-c]pyrrole-2-carbonyl)-thiazol-5-yl]-amide]

Ki [1]: 0.19 nM
EC50 [2]: 7.3 nM
Ki [3]: 0.69 nM
Compound: Nc1nn2cccnc2c1C(=O)Nc1cn(C2CCN(CCCN3CCNC3=O)CC2)nc1-c1cc(Cl)ccc1OC(F)F [Example 163, 2-amino-N-[3-[5-chloro-2-(difluoromethoxy)phenyl]-1-[1-[3-(2-oxoimidazolidin-1-yl)propyl]-4-piperidyl]pyrazol-4-yl]pyrazolo[1,5-a]pyrimidine-3-carboxamide]

Ki [1]: 1.8 nM
EC50 [2]: 14.9 nM
Ki [3]: 0.63 nM
Compound: CN(Cc1ccc(Cl)cc1)C1CCN(C(=O)Cn2cc(NC(=O)c3cnn4cccnc34)c(-c3cc(Cl)ccc3OC(F)F)n2)CC1 [Example 126, N-[3-[5-chloro-2-(difluoromethoxy)phenyl]-1-[2-[4-[(4-chlorophenyl)methyl-methyl-amino]-1-piperidyl]-2-oxo-ethyl]pyrazol-4-yl]pyrazolo[1,5-a]pyrimidine-3-carboxamide]

Ki [1]: 0.35 nM
EC50 [2]: 38.4 nM
Ki [3]: 1.25 nM
Compound: Nc1nn2cccnc2c1C(=O)Nc1cn(C2CCN(CCOCc3ccccc3)CC2)nc1-c1cc(Cl)ccc1OC(F)F [Example 180, 2-amino-N-[1-[1-(2-benzyloxyethyl)-4-piperidyl]-3-[5-chloro-2-(difluoromethoxy)phenyl]pyrazol-4-yl]pyrazolo[1,5-a]pyrimidine-3-carboxamide]
